The numbers were not newly measured in patent publication US7148216B2, “Combinations of drugs for the treatment of neoplastic disorders” (CombinatoRx, Inc., priority 2000, dated 2006), which cites them from elsewhere.

Like-named read-outs stand apart in the source and are kept apart here.

Take `N=C(N)c1ccc(OCCCCCOc2ccc(C(=N)N)cc2)cc1` [pentamidine isethionate, 4,4′-diamidino-diphenoxypentane di(β-hydroxyethanesulfonate)]: the solubility entry is, setting by setting: (in ether, acetone, and chloroform) “insoluble”; (in water and glycerin) “soluble”.
